Source: EP0099194A2, “Novel benzamides” (BEECHAM GROUP PLC, priority 1982, dated 1984)

Tests used:
Format in all cases: in vivo
5-MDMT induced symptoms [1] = assay: Anti-5HT activity: inhibition of 5-MDMT induced symptoms in rats; conditions: Rat; for ED50: po
Procedure: [The procedure below names another organism; the source lists this organism under the same test.] (§1) Mice (♂ CD^-1 Charles Rine) are pretreated with the compounds 10 animals/group under investigation and 1 h later one group is injected with 10 mg/kg ip 5-methoxy-N,N-dimethyltryptamioe (Sigma). The symptoms of fore- paw tapping movements, head jerks and splayed limbs are scored: 1, present; O, absent, giving a maximum score of 3/mouse or 30/group. Results are expressed as the percentage inhibition compared to the group treated with 5-methoxy-N,N-dimethyl tryptamine alone. The dose of compound inhibiting the symptoms by 50% is determined graphically.

5-MDMT induced symptoms [2] = assay: Anti-5HT activity: inhibition of 5-methoxy-N,N-dimethyltryptamine induced symptoms in mice; conditions: Mouse, p.o., pretreated 1 h before 10 mg/kg ip 5-methoxy-N,N-dimethyltryptamine, dose inhibiting symptoms by 50%; for ED50: po
Procedure: as §1

[3] = test system: post-synaptic Dopamine (D.A.) receptors; assay: Dopamine receptor blocking activity in the CNS: inhibition of apomorphine induced climbing; conditions: male CDl mice, p.o., apomorphine 1 mg/kg subcutaneous
Procedure: The test is based on that described by Protais, P., Constantin, J. and Schwartz J.C. (1976), Psychopharmacology, 50, 1-6.
When mice are given a dose of 1 mg/kg apomorphine and then placed in an enclosed environment, such as an inverted wire cage, they are seen to climb around the walls. This behavioural phenomenon is thought to be a consequence of the stimulation of post-synaptic Dopamine (D.A.) receptors in the nucleus accumbens. Inhibition of apomorphine induced climbing is therefore indicative of post-synaptic D.A. receptor blockade in the accumbens.
Groups of 10 male CDl mice, weighing 25-30 g were pre-treated orally with either graded doses of the test compound or vehicle, at appropriate time intervals before the subcutaneous administration of a sub-maximal dose of apomorphine (1 mg/kg). Immediately after the apomorphine injection the mice were placed in wire 'climbing cages' and each animal was scored for climbing behavour at 10 and 20 minutes post apomorphine as follows:- • Four paws on cage floor = O • Fore paws on cage wall = 1 • Four paws on cage wall = 2 […]

| Compound | ED50 (5-MDMT induced symptoms [1]) [mg/kg] | ED50 (5-MDMT induced symptoms [2]) [mg/kg] | other results |
| --- | --- | --- | --- |
| COc1cc(NC(C)=O)c(Cl)cc1C(=O)NC1CC2CCCC(C1)N2CC(C)(C)C (stereo not drawn) [Example 6] | 10 | – | – |
| COc1cc(NC(C)=O)c(Cl)cc1C(=O)N[C@@H]1C[C@H]2CC[C@@H](C1)N2CC(C)(C)C [Example 1, 4-Aoetylamino-5-chloro-2-methoxy-N-[3-β-(8-neopentyl-8-azabicyclo (3,2,1)octyl)]benzamide] | 10 | 2.4 | ED50 inhibition of apomorphine - induced climbing [3]: 4 mg/kg |
| COc1cc(N)c(Cl)cc1C(=O)NC1CC2CCC(C1)N2CCC(C)C (stereo not drawn) [Example 5, 4-Amino-5-chloro-2-methoxy-N-[3-β-(8-isopentyl-8-azabicyclo(3,2,1)octyl)] benzamide] | – | 8 | – |
| COc1cc(N)c(Cl)cc1C(=O)NC1CC2CCCC(C1)N2CC(C)(C)C (stereo not drawn) [Example 4, 4-Amino-5-chloro-2-mthoxy-N-[3-β-(9-neopentyl-9-azabicyclo (3,3,1)nonyl)]benzamide] | 6.2 | 4.6 | – |
| COc1cc(N)c(Br)cc1C(=O)NC1CC2CCC(C1)N2CC(C)(C)C (stereo not drawn) [Example 7, 4-Amino-5-bromo-2-methoxy-N-[3-β-(8-neopentyl-8-azabicyclo (3,2,1)octyl) ]benzamide] | – | 4 | – |
| 4-Amino-5-chloro-2-methoxy-N-[3-β-(8-cyclopropylmethyl-8-azabicyclo (3,2,1)octyl]benzamide [Example 3] | – | – | Anti 5-HT Activity Inhibition of 5-MDMT induced symptoms ED50 (5-MDMT induced symptoms [2]): ED503 mg/kg; Anti 5-HT Activity Inhibition of 5-MDMT induced symptoms (5-MDMT induced symptoms [1]; at 10 mg/kg p.o.): 56% at 10 |
| COc1cc(N)c(Cl)cc1C(=O)NC1CC2CCC(C1)N2CC(C)(C)C (stereo not drawn) [Example 2, 4-Amino-5-chloro-2-methoxy-N-[3-β-(8-neopentyl-8-azabicyclo (3,2,1)octyl)] benzamide] | 7.2 | 0.2 | – |
